Source: patent US8846704B2, “Thiopyrimidine-based compounds and uses thereof” (YM Biosciences Austraila Pty Ltd, priority 2007, dated 2014)

Columns and labels:
[1] = biological target: T1, BaF3 TELJAK2 cells (BafT_J2) (Homo sapiens, UniProt O60674); experiment: Cellular screening, BaF3 TEL:JAK2 cells, Alamar Blue; assay type: cell-based; details: 40 hr, read-out: BafT_J2 IC50_nM
T1 construct: fused on or other part: TEL (ETV6) N-terminal part, coding nucleotides 1-487, serves as the oligomerising partner; It is fused through a Sal I site to the JAK2 kinase domain and expressed from pTRE2 in BaF3 cells bearing pTET-off; P41212 (Transcription factor ETV6)
T1 sequence (O60674 whole entry, change not shown, the tested form may be a part): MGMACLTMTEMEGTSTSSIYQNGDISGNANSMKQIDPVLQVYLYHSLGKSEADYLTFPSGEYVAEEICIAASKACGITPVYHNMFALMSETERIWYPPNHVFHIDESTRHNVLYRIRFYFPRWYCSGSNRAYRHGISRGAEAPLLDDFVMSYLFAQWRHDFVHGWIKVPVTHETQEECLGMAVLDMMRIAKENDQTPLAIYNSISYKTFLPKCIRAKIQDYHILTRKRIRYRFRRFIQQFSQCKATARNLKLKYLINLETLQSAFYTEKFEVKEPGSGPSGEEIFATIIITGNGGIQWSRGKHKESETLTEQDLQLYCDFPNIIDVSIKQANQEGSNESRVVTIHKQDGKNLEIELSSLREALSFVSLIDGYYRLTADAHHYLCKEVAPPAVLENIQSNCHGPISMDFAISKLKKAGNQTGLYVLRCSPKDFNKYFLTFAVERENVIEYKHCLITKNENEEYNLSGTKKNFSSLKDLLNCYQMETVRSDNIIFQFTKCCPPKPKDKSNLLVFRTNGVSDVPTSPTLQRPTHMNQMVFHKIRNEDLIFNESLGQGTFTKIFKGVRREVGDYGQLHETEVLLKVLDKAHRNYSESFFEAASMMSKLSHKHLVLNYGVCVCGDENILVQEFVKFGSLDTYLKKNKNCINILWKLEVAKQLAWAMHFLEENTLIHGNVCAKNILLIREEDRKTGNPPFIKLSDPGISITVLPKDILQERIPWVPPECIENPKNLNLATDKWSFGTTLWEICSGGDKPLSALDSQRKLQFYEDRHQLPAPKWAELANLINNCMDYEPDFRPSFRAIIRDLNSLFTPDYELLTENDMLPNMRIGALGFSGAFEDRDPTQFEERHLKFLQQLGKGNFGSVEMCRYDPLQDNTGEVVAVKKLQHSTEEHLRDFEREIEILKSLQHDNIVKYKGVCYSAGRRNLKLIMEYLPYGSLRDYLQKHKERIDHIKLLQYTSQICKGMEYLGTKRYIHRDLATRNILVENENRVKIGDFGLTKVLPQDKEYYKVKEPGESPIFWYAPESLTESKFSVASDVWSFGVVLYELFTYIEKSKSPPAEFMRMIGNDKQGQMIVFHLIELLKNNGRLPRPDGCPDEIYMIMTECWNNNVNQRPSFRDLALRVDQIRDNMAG
How it was run: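 Tet-off BaF3 cells carrying a TEL (nt 1-487)–JAK2 kinase-domain fusion, grown factor-independently in DMEM with 10% Tet-approved FBS without WEHI 3B medium. Compounds were diluted to 20 μM in screening plates, and cells (50,000–200,000 cell/mL at 1.1×) were incubated 40 hr at 37 °C, 5% CO2. Alamar Blue was then added for 4-6 hours; read at 544 nm.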

[2] = biological target: T2, BaF3 TELJAK3 cells (Homo sapiens, UniProt P52333); experiment: Cellular screening, BaF3 TEL:JAK3 cells, Alamar Blue; assay type: cell-based; details: 40 hr, read-out: BafT_J3 IC50_nM
T2 construct: fused on or other part: TEL (ETV6) N-terminal part, coding nucleotides 1-487, serves as the oligomerising partner; It is fused through a Sal I site to the JAK3 kinase domain and expressed from pTRE2 in BaF3 cells bearing pTET-off; P41212 (Transcription factor ETV6)
T2 sequence (P52333 1-1124): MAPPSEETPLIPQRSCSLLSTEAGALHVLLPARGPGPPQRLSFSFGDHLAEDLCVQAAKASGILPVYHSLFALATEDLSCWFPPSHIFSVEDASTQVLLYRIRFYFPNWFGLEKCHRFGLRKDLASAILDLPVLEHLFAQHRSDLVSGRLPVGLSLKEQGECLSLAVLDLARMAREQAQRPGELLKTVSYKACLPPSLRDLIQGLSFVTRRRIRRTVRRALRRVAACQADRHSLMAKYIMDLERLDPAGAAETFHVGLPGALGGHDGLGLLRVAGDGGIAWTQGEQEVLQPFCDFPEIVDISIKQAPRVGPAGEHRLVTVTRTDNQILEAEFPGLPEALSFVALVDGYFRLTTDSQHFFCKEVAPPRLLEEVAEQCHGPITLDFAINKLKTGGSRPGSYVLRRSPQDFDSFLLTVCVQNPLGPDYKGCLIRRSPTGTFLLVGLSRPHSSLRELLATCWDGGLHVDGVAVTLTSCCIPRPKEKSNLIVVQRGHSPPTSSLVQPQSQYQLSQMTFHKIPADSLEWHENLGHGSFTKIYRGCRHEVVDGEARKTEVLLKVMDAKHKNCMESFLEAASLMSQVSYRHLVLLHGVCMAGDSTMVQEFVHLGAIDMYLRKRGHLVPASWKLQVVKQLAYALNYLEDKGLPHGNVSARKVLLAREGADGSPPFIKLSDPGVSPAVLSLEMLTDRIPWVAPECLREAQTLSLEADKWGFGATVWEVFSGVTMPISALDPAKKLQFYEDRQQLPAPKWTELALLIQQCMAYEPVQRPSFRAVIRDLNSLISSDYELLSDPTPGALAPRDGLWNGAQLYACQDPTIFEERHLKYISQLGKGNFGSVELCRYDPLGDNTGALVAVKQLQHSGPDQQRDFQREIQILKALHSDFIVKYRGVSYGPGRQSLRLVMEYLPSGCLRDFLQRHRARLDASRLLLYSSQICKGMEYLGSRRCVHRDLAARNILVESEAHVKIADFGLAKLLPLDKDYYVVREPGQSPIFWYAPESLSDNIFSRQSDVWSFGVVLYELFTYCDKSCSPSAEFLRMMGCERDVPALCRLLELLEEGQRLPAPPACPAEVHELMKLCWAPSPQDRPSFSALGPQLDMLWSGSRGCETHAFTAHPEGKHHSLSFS
How it was run: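 BaF3 cells carrying pTET-off and a TEL–JAK3 kinase-domain fusion, selected for growth-factor independence, were grown in DMEM with 10% Tet-approved FBS without WEHI 3B medium. Cells were exposed to compounds for 40 h at 37 °C, 5% CO2. Viability was read with Alamar Blue (4–6 h) at 544 nm.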

| SMILES | GI50 [1] [µM] | GI50 [2] [µM] |
| --- | --- | --- |
| C=CC(=O)Nc1ccc(Sc2nc(Nc3ccc(N4CCC(CO)CC4)cc3)ncc2C)cc1 [Compound 286, N-(4-(2-(4-(4-(hydroxymethyl)piperidin-1-yl)phenylao)-5-methylpyrimidin-4-ylthio)phenyl)acrylamide] | > 20 | < 1 |
| C=CC(=O)Nc1ccc(Sc2nc(Nc3cccc(NS(C)(=O)=O)c3)ncc2C)cc1 [Compound 288, N-(4-(5-methyl-2-(3-(methylsulfonamido)phenylao)pyrimidin-4-ylthio)phenyl)acrylamide] | < 20 | < 1 |
| C=CC(=O)Nc1ccc(Sc2nc(Nc3ccc(OCCN4CCOCC4)cc3)ncc2C)cc1 [Compound 290, N-(4-(5-methyl-2-(4-(2-morpholinoethoxy)phenylao)pyrimidin-4-ylthio)phenyl)acrylamide] | < 20 | < 1 |
| C=CC(=O)Nc1ccc(Sc2nc(Nc3ccc(OCCCN(CC)CC)cc3)ncc2C)cc1 [Compound 291, N-(4-(2-(4-(3-(diethylao)propoxy)phenylao)-5-methylpyrimidin-4-ylthio)phenyl)acrylamide] | < 5 | < 1 |
| C=CC(=O)Nc1ccc(Sc2nc(Nc3ccc(OC)c(NS(C)(=O)=O)c3)ncc2C)cc1 [Compound 293, N-(4-(2-(4-methoxy-3-(methylsulfonamido)phenylao)-5-methylpyrimidin-4-ylthio)phenyl)acrylamide] | < 5 | < 1 |
| C=CC(=O)Nc1ccc(Sc2nc(Nc3ccc(N4CCC(O)C4)cc3)ncc2C)cc1 (centres unmarked) [Compound 295, N-(4-(2-(4-(3-hydroxypyrrolidin-1-yl)phenylao)-5-methylpyrimidin-4-ylthio)phenyl)acrylamide] | > 20 | < 1 |
| C=CC(=O)Nc1ccc(Sc2nc(Nc3ccc(NS(C)(=O)=O)c(OC)c3)ncc2C)cc1 [Compound 296, N-(4-(2-(3-methoxy-4-(methylsulfonamido)phenylao)-5-methylpyrimidin-4-ylthio)phenyl)acrylamide] | < 5 | < 1 |
| C=CC(=O)Nc1ccc(Sc2nc(Nc3ccc(N4CCCC(O)C4)cc3)ncc2C)cc1 (centres unmarked) [Compound 299, N-(4-(2-(4-(3-hydroxypiperidin-1-yl)phenylao)-5-methylpyrimidin-4-ylthio)phenyl)acrylamide] | < 20 | < 1 |
| C=CC(=O)Nc1ccc(Sc2nc(Nc3ccc(N4CCOCC4)cc3)ncc2Br)cc1 [Compound 306, N-(4-(5-bromo-2-(4-morpholinophenylao)pyrimidin-4-ylthio)phenyl)acrylamide] | > 20 | < 1 |
| O=C(/C=C/Cl)Nc1cccc(Sc2ccnc(Nc3ccc(N4CCOCC4)cc3)n2)c1 [Compound 340, (E)-3-chloro-N-(3-(2-(4-morpholinophenylao)pyrimidin-4-ylthio)phenyl)acrylamide] | < 20 | < 1 |
| O=C(/C=C\Cl)Nc1ccc(Sc2ccnc(Nc3ccc(N4CCOCC4)cc3)n2)cc1 [Compound 346, (Z)-3-chloro-N-(4-(2-(4-morpholinophenylao)pyrimidin-4-ylthio)phenyl)acrylamide] | < 1 | < 1 |
| C=CC(=O)Nc1ccc(Sc2ccnc(Nc3ccc(S(N)(=O)=O)c(OC)c3)n2)cc1 [Compound 374, N-(4-(2-(3-methoxy-4-sulfamoylphenylao)pyrimidin-4-ylthio)phenyl)acrylamide] | < 5 | < 1 |
| Cc1cnc(Nc2ccc(N3CCOCC3)cc2)nc1Sc1ccc(NC(=O)/C=C\C(=O)O)cc1 [Compound 380, (Z)-4-(4-(5-methyl-2-(4-morpholinophenylao)pyrimidin-4-ylthio)phenylao)-4-oxobut-2-enoic acid] | > 20 | > 20 |
| Cc1cnc(Nc2ccc(N3CCOCC3)cc2)nc1Sc1ccc(N2C(=O)C=C(Br)C2=O)cc1 [Compound 382, 3-bromo-1-(4-(5-methyl-2-(4-morpholinophenylao)pyrimidin-4-ylthio)phenyl)-1H-pyrrole-2,5-dione] | < 20 | < 20 |
| CCOC(=O)/C=C/C(=O)Nc1ccc(Sc2nc(Nc3ccc(N4CCOCC4)cc3)ncc2C)cc1 [Compound 385, (E)-ethyl 4-(4-(5-methyl-2-(4-morpholinophenylao)pyrimidin-4-ylthio)phenylao)-4-oxobut-2-enoate] | > 20 | < 1 |
| CNC(=O)/C=C\C(=O)Nc1ccc(Sc2nc(Nc3ccc(N4CCOCC4)cc3)ncc2C)cc1 [Compound 389, N1-methyl-N4-(4-(5-methyl-2-(4-morpholinophenylao)pyrimidin-4-ylthio)phenyl)maleamide] | < 20 | < 1 |
